According to patent US10370372B2, “Fused pyrimidine compound or salt thereof” (TAIHO PHARMACEUTICAL CO., LTD., priority 2015, dated 2019):
Where two headings read alike, the source gives them in different places.

Key:
Format in all cases: cell-based
AR expression in LNCaP = assay: Activity of reducing expression level of androgen receptor (Western blotting in LNCaP); details: Homo sapiens, read-out: AR expression reducing activity
Experimental: AR positive human prostate cancer cells LNCaP were seeded in a 6 well microplate (BD) at 3.5×10^5/well with RPMI1640 containing 5% FBS (hereinbelow, the medium is referred to as an evaluation medium), and then cultured overnight. […] After culture for 48 hours, the medium was removed and the cells were washed with PBS and added with 0.1 mL of Lysis buffer (M-PER added with Protease Inhibitor Cocktail), followed by keeping at 4° C. for 20 minutes. After cell lysis, the cell solution was centrifuged to recover the supernatant as cell lysate. […] The antibody-reacting band (anti AR receptor) was quantified by LAS Imaging System (FUJIFILM) using Super Signal West Dura Substrate (Thermo Scientific) as a detection reagent.
When the AR expression reducing activity is 50% or more, it is described as “reduced”.

[1] = tested on: AR positive human prostate cancer cells VCaP; assay: Agonist activity for AR: cell proliferation rate of VCaP cells; details: 5-10000 nmol/L, 72 hours, relative to evaluation medium only, more than 10% = agonist activity
Experimental: Then, the number of viable cells was measured (test group). As a control, the cells were cultured after being added with the evaluation medium only, and the number of viable cells was measured (control group). The number of viable cells was measured by using CellTiter-Glo™ Luminescent Cell Viability Assay (Promega). From the measured number of viable cells, cell proliferation rate with respect to the compound of Examples or the compound of Comparative Examples was calculated based on the number of viable cells measured in the case of using the evaluation medium only. Cell proliferation rate (%)=(Number of viable cells in test group−Number of viable cells in control group)/(Number of viable cells in control group)×100
By considering an error in the number of viable cells measured in the case of using the evaluation medium only, when the cell proliferation rate was more than 10% at any concentration of the 8 concentrations which had been evaluated, it was determined to have an agonist activity for AR.

[2] = tested on: Human prostate cancer cells LNCaP; assay: Inhibitory activity on androgen-dependent proliferation of prostate cancer cells; details: 1 nmol/L DHT, 72 hours, Cell Counting Kit-8, read-out: Proliferation inhibition concentration GI50 value
Experimental: Human prostate cancer cells LNCaP (Non-Patent Literature 5) having […] androgen receptor gene were seeded in a clear bottom 96 well microplate (BD) at 4.0×10^3/well with phenol red free RPMI1640 containing 5% DCC-FBS (hereinbelow, the medium is referred to as an evaluation medium), and then cultured overnight. […] Then, the number of viable cells was measured. The number of viable cells was measured by using Cell Counting Kit-8 (DOJINDO LABORATORIES).

human androgen receptor = target: T1, human androgen receptor (Homo sapiens, UniProt P10275); assay: Antagonist activity for AR: MMTV-luc reporter transcription in COS-7 cells transfected with human AR, stimulated with DHT
T1 construct: expressed in transfected cells; host or cells: COS-7 cells (ATCC)
T1 sequence (P10275 1-920): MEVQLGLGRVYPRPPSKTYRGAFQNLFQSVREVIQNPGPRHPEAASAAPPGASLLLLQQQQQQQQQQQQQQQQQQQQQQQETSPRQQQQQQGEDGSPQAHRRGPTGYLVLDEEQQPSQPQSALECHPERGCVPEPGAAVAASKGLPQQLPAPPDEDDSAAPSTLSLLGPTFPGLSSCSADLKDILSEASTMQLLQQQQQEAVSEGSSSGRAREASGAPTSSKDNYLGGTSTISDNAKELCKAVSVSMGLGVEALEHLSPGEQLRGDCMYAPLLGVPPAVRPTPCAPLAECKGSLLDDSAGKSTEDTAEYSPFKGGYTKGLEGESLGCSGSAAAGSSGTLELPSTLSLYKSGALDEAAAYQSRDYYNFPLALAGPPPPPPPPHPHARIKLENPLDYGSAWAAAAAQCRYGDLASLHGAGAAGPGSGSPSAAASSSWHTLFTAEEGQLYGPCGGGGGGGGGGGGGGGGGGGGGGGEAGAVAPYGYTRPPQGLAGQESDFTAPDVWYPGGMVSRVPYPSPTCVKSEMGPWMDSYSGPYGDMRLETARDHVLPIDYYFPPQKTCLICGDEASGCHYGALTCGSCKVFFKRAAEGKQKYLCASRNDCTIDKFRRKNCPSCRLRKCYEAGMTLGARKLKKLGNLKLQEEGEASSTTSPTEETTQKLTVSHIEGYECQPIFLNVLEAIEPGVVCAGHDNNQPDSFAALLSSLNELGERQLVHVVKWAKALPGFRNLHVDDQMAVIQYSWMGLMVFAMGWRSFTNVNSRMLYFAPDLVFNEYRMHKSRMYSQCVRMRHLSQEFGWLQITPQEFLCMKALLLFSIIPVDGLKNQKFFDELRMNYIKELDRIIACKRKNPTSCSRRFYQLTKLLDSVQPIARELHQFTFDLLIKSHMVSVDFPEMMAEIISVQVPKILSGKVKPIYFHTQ
Experimental: Antagonist activity for AR was evaluated according to the following method. COS-7 cells (ATCC) were transfected with pMMTV-luc vector (reporter plasmid having, as an androgen response element, […] long terminal repeat) and pEX-hAR vector (human androgen receptor expression vector: which expresses human AR gene under control of CMV promoter) by using Nucleofector (registered trademark) Kit R (Lonza) as a transfection reagent and Amaxa (Lonza). The COS-7 cells obtained after transfection were seeded in a clear bottom 96 well microplate (BD) at 1.5×10^4/well with phenol red free RPMI1640 containing 10% charcoal-treated fetal bovine serum (hereinbelow, DCC-FBS) (hereinbelow, the medium is referred to as an evaluation medium), and then cultured overnight. […] Then, the transcription activity value of the reporter plasmid was measured. The transcription activity was measured by using Bright-Glo™ Luciferase Assay System (Promega).

[3] = COS-7 cells with pMMTV-luc and pEX-hAR, 1 nmol/L DHT, 24 hours, read-out: AR antagonist IC50
[4] = 10000 nmol/L, 48 hours, vs evaluation medium control

Structure (SMILES)	inhibition at 10 µM (AR expression in LNCaP; 48 h)	Cell proliferation rate (%) [1]	GI50 [2]	IC50 (human androgen receptor)	IC50 (human androgen receptor; [3])	inhibition at 10 µM (AR expression in LNCaP; [4])
N#Cc1ccc(N2CCc3c(ncnc3Nc3ccc(C(=O)N4CCCCCC4)cn3)C2)cc1C(F)(F)F [Example 6, 4-(4-((5-(azepane-1-carbonyl)pyridin-2-yl)amino)-5,6-dihydropyrido[3,4-d]pyrimidin-7(8H)-yl)-2-(trifluoromethyl)benzonitrile]	> 50%	−1.0%	55 nM	130 nM	–	–
COc1ccc(Nc2ncnc3c2CCN(c2ccc(C#N)c(C(F)(F)F)c2)C3)cc1OC [Example 26, 4-(4-((3,4-Dimethoxyphenyl)amino)-5,6-dihydropyrido[3,4-d]pyrimidin-7(8H)-yl)-2-(trifluoromethyl)benzonitrile]	> 50%	4.5%	1200 nM	1100 nM	–	–
COc1cc(N2CCc3c(ncnc3Nc3ccc(C(C)(C)O)cn3)C2)ccc1[N+](=O)[O-] [Example 15, 2-(6-((7-(3-methoxy-4-nitrophenyl)-5,6,7,8-tetrahydropyrido[3,4-d]pyrimidin-4-yl)amino)pyridin-3-yl)propan-2-ol]	–	7.7%	3000 nM	–	260 nM	–
CC(C)(C)ONC(=O)c1ccc(Nc2ncnc3c2CCN(c2ccc(C#N)c(C(F)(F)F)c2)C3)nc1 [Example 7, N-(tert-butoxy)-6-((7-(4-cyano-3-(trifluoromethyl)phenyl)-5,6,7,8-tetrahydropyrido[3,4-d]pyrimidin-4-yl)amino)nicotinamide]	> 50%	0.90%	180 nM	–	380 nM	–
Cc1cc(N2CCc3c(ncnc3Nc3ccc(C(C)(C)O)cn3)C2)ccc1[N+](=O)[O-] [Example 16, 2-(6-((7-(3-methyl-4-nitrophenyl)-5,6,7,8-tetrahydropyrido[3,4-d]pyrimidin-4-yl)amino)pyridin-3-yl)propan-2-ol]	–	−1.8%	230 nM	–	70 nM	> 50%
CC(C)(C)OC(=O)N1Cc2ccc(Nc3ncnc4c3CCN(c3ccc(C#N)c(Cl)c3)C4)cc2C1 [Example 29, tert-butyl 5-((7-(3-chloro-4-cyanophenyl)-5,6,7,8-tetrahydropyrido[3,4-d]pyrimidin-4-yl)amino)isoindoline-2-carboxylate]	> 50%	2.4%	830 nM	220 nM	–	–
CC(C)(O)c1ccc(Nc2ncnc3c2CCN(c2ccc([N+](=O)[O-])c(Cl)c2F)C3)nc1 [Example 18, 2-(6-((7-(3-chloro-2-fluoro-4-nitrophenyl)-5,6,7,8-tetrahydropyrido[3,4-d]pyrimidin-4-yl)amino)pyridin-3-yl)propan-2-ol]	–	9.5%	–	–	1000 nM	–
CNC(=O)c1ccc(Nc2ncnc3c2CCN(c2ccc(C#N)c(Cl)c2)C3)nc1F [Example 2, 6-((7-(3-chloro-4-cyanophenyl)-5,6,7,8-tetrahydropyrido[3,4-d]pyrimidin-4-yl)amino)-2-fluoro-N-methylnicotinamide]	> 50%	–	290 nM	33 nM	–	–
N#Cc1ccc(N2CCc3c(ncnc3Nc3ccc(OCCCN4CCNCC4)c(C(F)(F)F)c3)C2)cc1Cl [Example 38, 2-chloro-4-(4-((4-(3-(piperazin-1-yl)propoxy)-3-(trifluoromethyl)phenyl)amino)-5,6-dihydropyrido[3,4-d]pyrimidin-7(8H)-yl)benzonitrile]	–	−1.3%	120 nM	950 nM	–	–
N#Cc1ccc(N2CCc3c(ncnc3Nc3ccc(N4CC5(COC5)C4)cc3)C2)cc1Cl [Example 28, 4-(4-((4-(2-oxa-6-azaspiro[3.3]heptan-6-yl)phenyl)amino)-5,6-dihydropyrido[3,4-d]pyrimidin-7(8H)-yl)-2-chlorobenzonitrile]	> 50%	1.4%	680 nM	680 nM	–	–
CCNC(=O)c1ccc(Nc2ncnc3c2CCN(c2ccc(C#N)c(C(F)(F)F)c2)C3)nc1F [Example 4, 6-((7-(4-cyano-3-(trifluoromethyl)phenyl)-5,6,7,8-tetrahydropyrido[3,4-d]pyrimidin-4-yl)amino)-N-ethyl-2-fluoronicotinamide]	> 50%	9.7%	1100 nM	45 nM	–	–
N#Cc1ccc(N2CCc3c(ncnc3Nc3ccc(C(=O)NC4CC4)nn3)C2)cc1C(F)(F)F [Example 9, 6-((7-(4-cyano-3-(trifluoromethyl)phenyl)-5,6,7,8-tetrahydropyrido[3,4-d]pyrimidin-4-yl)amino)-N-cyclopropylpyridazine-3-carboxamide]	> 50%	−3.0%	510 nM	30 nM	–	–
N#Cc1ccc(N2CCc3c(ncnc3Nc3ccc(C4(O)COC4)c(F)n3)C2)cc1Cl [Example 35, 2-Chloro-4-(4-((6-fluoro-5-(3-hydroxyoxetan-3-yl)pyridin-2-yl)amino)-5,6-dihydropyrido[3,4-d]pyrimidin-7(8H)-yl)benzonitrile]	> 50%	9.4%	–	–	120 nM	–
CC(O)(CS(=O)(=O)c1ccc(F)cc1)C(=O)Nc1ccc(C#N)c(C(F)(F)F)c1 (stereo not shown) [Bicalutamide, reference compound]	< 10%	36%	2300 nM	–	–	–
Cc1cc(N2CCc3c(ncnc3Nc3ccc(C(C)(C)O)cn3)C2)ccc1C#N [Example 20, 4-(4-((5-(2-hydroxypropan-2-yl)pyridin-2-yl)amino)-5,6-dihydropyrido[3,4-d]pyrimidin-7(8H)-yl)-2-methylbenzonitrile]	–	−0.89%	–	–	480 nM	> 50%
CCNC(=O)c1ccc(Nc2ncnc3c2CCN(c2ccc(C#N)c(C(F)(F)F)c2)C3)nn1 [Example 10, 6-((7-(4-cyano-3-(trifluoromethyl)phenyl)-5,6,7,8-tetrahydropyrido[3,4-d]pyrimidin-4-yl)amino)-N-ethylpyridazine-3-carboxamide]	> 50%	–	400 nM	7 nM	–	–
